Read-outs that look alike come from different tables or passages of the source.
Experiments:
[1] = target: Human DP1 receptor (Homo sapiens (Human), UniProt Q13258); test: Human DP1 inhibitory activity in DP1-expressing cell (PGD2-induced cAMP); type: cell-based
Procedure: Compounds were categorized as AA (cAMP is less than 100 nM) and A (cAMP is more than 100 nM and less than 5000 nM) as shown in Table 99 and 100.

[2] = target: CRTH2 (Homo sapiens (Human), UniProt Q9Y5Y4); test: CRTH2 receptor binding inhibitory activity ([3H]-PGD2 displacement, membranes of CRTH2-expressing K562 cell); settings: [3H]-PGD2 displacement, membrane of CRTH2-expressing K562 cell, read-out: Ki
Chain of CRTH2 (Q9Y5Y4 whole entry): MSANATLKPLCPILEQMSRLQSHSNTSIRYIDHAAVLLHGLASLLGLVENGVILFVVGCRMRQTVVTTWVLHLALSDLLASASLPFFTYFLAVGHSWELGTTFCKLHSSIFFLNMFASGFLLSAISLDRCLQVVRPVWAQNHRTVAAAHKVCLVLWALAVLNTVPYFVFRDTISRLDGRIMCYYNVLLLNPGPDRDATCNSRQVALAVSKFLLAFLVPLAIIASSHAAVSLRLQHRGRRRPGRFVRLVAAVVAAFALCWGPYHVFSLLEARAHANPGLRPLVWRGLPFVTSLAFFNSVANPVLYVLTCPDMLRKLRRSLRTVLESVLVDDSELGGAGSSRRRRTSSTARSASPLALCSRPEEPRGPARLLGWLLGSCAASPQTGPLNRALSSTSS
Procedure: Cell membrane was prepared from CRTH2-expressing K562 cell. The cell membrane (20 μg/well) was mixed with reaction buffer (50 mM Tris/HCl, pH 7.4, 10 mM MgCl2). Then, [^3H]-PGD2 was added to the mixture and incubated for 60 min at room temperature. […] Then, the mixture was filtrated with glass paper immediately. The filter paper was washed several times and radio activity on the filter was measured. Specific binding was defined as difference between total and non-specific binding (radio activity with 10 μM PGD2). Ki values for each compound were calculated from displacement curve.

[3] = category of cAMP IC50, human DP1 receptor expressing Jurkut cell
[4] = CRTH2 receptor binding, categorized AAAA/AAA

Chain of Human DP1 receptor (Q13258 whole entry): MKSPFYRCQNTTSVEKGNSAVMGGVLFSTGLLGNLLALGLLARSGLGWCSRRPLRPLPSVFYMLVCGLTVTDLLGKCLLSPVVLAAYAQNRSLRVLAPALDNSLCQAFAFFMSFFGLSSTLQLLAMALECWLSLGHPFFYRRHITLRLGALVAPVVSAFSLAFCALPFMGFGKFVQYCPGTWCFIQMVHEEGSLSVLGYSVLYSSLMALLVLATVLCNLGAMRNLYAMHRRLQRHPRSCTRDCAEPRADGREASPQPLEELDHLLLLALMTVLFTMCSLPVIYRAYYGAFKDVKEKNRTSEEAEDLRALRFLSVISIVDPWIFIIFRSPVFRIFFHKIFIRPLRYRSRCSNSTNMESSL

SMILES | IC50 [1, 3] [nM] | Ki [2, 4] [nM] | IC50 ([1]; IC50 of PGD2 (60 nM)-induced cAMP increase, human DP1 receptor expressing Jurkut cell) [nM] | Ki [2] [nM]
CCOc1ccc(S(=O)(=O)N2C[C@@H](C)[C@@H](n3nc(Cc4noc(=O)[nH]4)c4ccccc43)C2)cc1 [Compound I-296] | 100 to 5000 | 100 to 5000 | – | –
CC(C)Oc1ccc(S(=O)(=O)N2C[C@@H](C)[C@@H](n3nc(CC(=O)O)c4ccccc43)C2)cn1 [Compound I-99] | < 100 | < 100 | – | –
CC(C)Oc1ccc(S(=O)(=O)N2C[C@H](n3nc(CC(=O)O)c4ccc(F)cc43)C[C@@H]2COc2ccc(O)cc2)cc1 [Compound I-347] | < 100 | 100 to 5000 | – | –
CC(C)Oc1ccc(S(=O)(=O)N2C[C@@H](C)[C@@H](n3nc(CC(=O)O)c4cc(F)ccc43)C2)cc1 [Compound I-69] | < 100 | 100 to 5000 | – | –
Cc1ccc2c(CC(=O)O)nn([C@H]3CN(S(=O)(=O)C4CC4C(C)C)C[C@H]3C)c2c1 (stereo partly shown) [Compound I-249] | 100 to 5000 | < 100 | – | –
CCOc1ccc(S(=O)(=O)N2C[C@@H](C)[C@@H](n3nc(CC(=O)O)c4ccc(F)cc43)C2)cc1 [Compound I-106] | < 100 | < 100 | – | –
CC(C)Oc1ccc(S(=O)(=O)N2C[C@@H](C)[C@H](n3nc(CC(=O)O)c4ccccc43)C2)cc1 [Compound I-199] | 100 to 5000 | 100 to 5000 | – | –
CCOc1ccc(S(=O)(=O)N2C[C@@H](C)[C@@H](n3nc(CC(=O)O)c4cc(Cl)ccc43)C2)cc1 [Compound I-161] | < 100 | 100 to 5000 | – | –
CCOc1ccc(S(=O)(=O)N2C[C@H](n3c(C)c(CC(=O)O)c4ccccc43)C[C@@H]2C)cc1 [Compound I-315] | < 100 | 100 to 5000 | – | –
CCOc1ccc(S(=O)(=O)N2C[C@@H](C)[C@@H](n3nc(CC(=O)O)c4cc5c(cc43)OCO5)C2)cc1 [Compound I-175] | 100 to 5000 | < 100 | – | –
CCOc1ccc(S(=O)(=O)N2C[C@@H](C)[C@@H](n3nc(CC(=O)O)c4ccc(C5=CCCCC5)cc43)C2)cc1 [Compound I-220] | < 100 | < 100 | 32 | 8.1
CCOc1ccc(S(=O)(=O)N2C[C@H](n3nc(CC(=O)O)c4ccccc43)[C@@](C)(F)C2)cc1 (racemic) [Compound I-228] | < 100 | < 100 | – | –
CCOc1ccc(S(=O)(=O)N2C[C@@H](C)[C@@H](n3nc(CC(=O)O)c4cc(C#N)ccc43)C2)cc1 [Compound I-160] | < 100 | 100 to 5000 | – | –
CC(C)Oc1ccc(S(=O)(=O)N2C[C@H](n3nc(CC(=O)O)c4ccc(F)cc43)C[C@@H]2c2ccncc2)cc1 [Compound I-361] | 100 to 5000 | 100 to 5000 | – | –
C=C[C@@H]1CN(S(=O)(=O)c2ccc(OC(C)C)cc2)C[C@@H]1n1nc(CC(=O)O)c2ccc(F)cc21 [Compound I-38] | < 100 | < 100 | – | –
CC1Cc2cc(S(=O)(=O)N3C[C@@H](C)[C@@H](n4nc(CC(=O)O)c5ccccc54)C3)ccc2O1 (stereo partly shown) [Compound I-153] | < 100 | < 100 | – | 65
CC(C)Oc1ccc(S(=O)(=O)N2C[C@@H](C)[C@@H](n3nc(CC(=O)O)c4cccnc43)C2)cc1 [Compound I-145] | 100 to 5000 | < 100 | – | 3.1
CC(C)Oc1ccc(S(=O)(=O)N2C[C@@H](C)[C@@H](n3nc(CC(=O)O)c4cc(Cl)ccc43)C2)cc1 [Compound I-163] | < 100 | 100 to 5000 | – | –
COc1ccc(S(=O)(=O)N2C[C@@H](C)[C@@H](n3nc(CC(=O)O)c4ccccc43)C2)s1 [Compound I-178] | 100 to 5000 | < 100 | – | –
C[C@@H]1CN(S(=O)(=O)c2ccccc2Cl)C[C@@H]1n1nc(CC(=O)O)c2ccc(F)cc21 [Compound I-121] | 100 to 5000 | < 100 | – | –
CCOc1ccc(S(=O)(=O)N2C[C@@H](C)[C@@H](n3nc(CC(=O)O)c4ccc(C)cc43)C2)c(F)c1 [Compound I-237] | < 100 | < 100 | – | –
CC(C)Oc1ccc(S(=O)(=O)N2[C@H](C)C[C@H](n3nc(CC(=O)O)c4ccc(F)cc43)C[C@@H]2C)cc1 [Compound I-73] | < 100 | 100 to 5000 | – | –
CCc1ccc(S(=O)(=O)N2C[C@@H](C)[C@@H](n3nc(CC(=O)O)c4ccc(F)cc43)C2)cc1 [Compound I-118] | < 100 | < 100 | – | –
CCOc1ccc(S(=O)(=O)N2C[C@@H](C)[C@@H](n3c(C)c(CC(=O)O)c4ccccc43)C2)cn1 [Compound I-330] | < 100 | < 100 | – | –
CCOc1ccc(S(=O)(=O)N2C[C@@H](C)[C@@H](n3nc(CC(=O)O)c4cc5c(cc43)OCO5)C2)cn1 [Compound I-176] | 100 to 5000 | < 100 | – | –
CC(C)Oc1ccc(S(=O)(=O)N2CC[C@H](n3nc(CC(=O)O)c4ccc(F)cc43)C[C@@H]2C)cc1 [Compound I-76] | < 100 | 100 to 5000 | – | –

SMILES | IC50 [1, 3] [nM] | Ki [2, 4] [nM] | IC50 ([1]; IC50 of PGD2 (60 nM)-induced cAMP increase, human DP1 receptor expressing Jurkut cell) [nM] | Ki [2] [nM]
CCOc1ccc(S(=O)(=O)N2C[C@@H](C)[C@@H](n3nc(C(O)C(=O)O)c4ccccc43)C2)cc1 (single isomer, unassigned) [Compound I-306] | 100 to 5000 | 100 to 5000 | – | –
C[C@@H]1CN(S(=O)(=O)c2ccc(F)cc2)C[C@@H]1n1nc(CC(=O)O)c2ccc(F)cc21 [Compound I-48] | 100 to 5000 | < 100 | – | –
CCOc1ccc(S(=O)(=O)N2C[C@@H](C)[C@@H](n3nc(CC(=O)O)c4ccc(C)cc43)C2)s1 [Compound I-171] | < 100 | < 100 | – | –
C[C@@H]1CN(S(=O)(=O)c2ccc(OCF)cc2)C[C@@H]1n1nc(CC(=O)O)c2ccc(F)cc21 [Compound I-269] | < 100 | < 100 | – | –
CC(C)Oc1ccc(S(=O)(=O)N2C[C@H](n3nc(CC(=O)O)c4ccc(F)cc43)C[C@@H]2CCc2ccccc2)cc1 [Compound I-343] | < 100 | < 100 | – | –
CC(C)Oc1ccc(S(=O)(=O)N2C[C@@H](C)[C@@H](n3nc(CC(=O)O)c4ccc(Cl)cc43)C2)cc1 [Compound I-135] | < 100 | < 100 | – | –
CCOc1ccc(S(=O)(=O)N2C[C@@H](C)[C@@H](n3nc(CC(=O)O)c4ccccc43)C2)c(/C=C/COC)c1 [Compound I-182] | 100 to 5000 | < 100 | – | –
CCOc1ccc(S(=O)(=O)N2C[C@@H](C)[C@@H](n3nc(CC(=O)O)c4ccccc43)C2)c(CCCNC(C)=O)c1 [Compound I-260] | 100 to 5000 | < 100 | – | 21
CC(C)Oc1ccc(S(=O)(=O)N2C[C@@H](CCO)[C@@H](n3nc(CC(=O)O)c4ccc(F)cc43)C2)cc1 [Compound I-40] | 100 to 5000 | < 100 | – | –
CC(C)Oc1ccc(S(=O)(=O)N2C[C@H](n3nc(CC(=O)O)c4ccc(F)cc43)C[C@@H]2COCCCOc2ccccc2)cc1 [Compound I-289] | 100 to 5000 | 100 to 5000 | – | –
CC(C)Oc1ccc(S(=O)(=O)N2C[C@H](n3nc(CC(=O)O)c4ccc(F)cc43)C[C@@H]2C(F)F)cc1 [Compound I-22] | < 100 | < 100 | – | –
C[C@@H]1CN(S(=O)(=O)c2ccc(OC(F)(F)F)cc2)C[C@@H]1n1nc(CC(=O)O)c2ccc(F)cc21 [Compound I-120] | < 100 | < 100 | – | –
CCOc1cc(F)c(S(=O)(=O)N2C[C@@H](C)[C@@H](n3nc(CC(=O)O)c4ccc(F)cc43)C2)c(F)c1 [Compound I-125] | 100 to 5000 | < 100 | – | –
CC(C)Oc1ccc(S(=O)(=O)N2C[C@@H](C)[C@@H](n3nc(CC(=O)O)c4ccc(F)cc43)C2)nc1 [Compound I-149] | 100 to 5000 | < 100 | – | 4.8
CC(C)Oc1ccc(S(=O)(=O)N2C[C@H](n3nc(CC(=O)O)c4ccc(F)cc43)C[C@@H]2c2ccccc2)cc1 [Compound I-360] | < 100 | < 100 | – | 30
CC(C)OCCOc1ccc(S(=O)(=O)N2C[C@@H](C)[C@@H](n3nc(CC(=O)O)c4ccccc43)C2)cc1 [Compound I-190] | 100 to 5000 | < 100 | – | –
Cc1cccc2c1c(CC(=O)O)nn2[C@H]1CN(S(=O)(=O)c2ccc(OC(C)C)cc2)C[C@H]1C [Compound I-250] | < 100 | 100 to 5000 | – | –
Cc1noc([C@H]2C[C@@H](n3nc(CC(=O)O)c4ccc(F)cc43)CN2S(=O)(=O)c2ccc(OC(C)C)cc2)n1 [Compound I-364] | 100 to 5000 | 100 to 5000 | – | –
[2H]c1ccc2c(c1)c(CC(=O)O)nn2[C@H]1CN(S(=O)(=O)c2ccc(OCC)cc2)C[C@H]1C [Compound I-264] | < 100 | < 100 | – | –
CC(C)Oc1ccc(S(=O)(=O)N2C[C@@H](C)[C@@H](n3nc(CC(=O)O)c4ccc(Cl)cc43)C2)cn1 [Compound I-146] | < 100 | < 100 | – | –
CC(C)Oc1ccc(S(=O)(=O)N2C[C@H](n3nc(CC(=O)O)c4ccccc43)C[C@@H]2C)cc1 [Compound I-91] | < 100 | < 100 | – | –
CCOc1ccc(S(=O)(=O)N2C[C@@H](C)[C@@H](n3nc(CC(=O)O)c4ccccc43)C2)c(CCCOC)c1 [Compound I-183] | 100 to 5000 | < 100 | – | –
COc1ccc(S(=O)(=O)N2C[C@@H](C)[C@@H](n3nc(CC(=O)O)c4ccc(C)cc43)C2)c(F)c1 [Compound I-236] | < 100 | < 100 | – | –
CCOc1ccc(S(=O)(=O)N2C[C@H](n3nc(CC(=O)O)c4ccccc43)C(C)(C)C2)cc1 [Compound I-356] | 100 to 5000 | < 100 | – | –
C[C@@H]1CN(S(=O)(=O)c2ccc(OC(F)(F)F)cc2)C[C@@H]1n1nc(CC(=O)O)c2ccccc21 [Compound I-242] | < 100 | < 100 | – | –

Reference: patent US9725442B2, “Heterocyclic derivative having PGD2 receptor antagonist activity” (Shionogi & Co., Ltd., priority 2011, dated 2017)
